Data on one compound can be found in the NIST ThermoML archive (doi:10.1016/j.fluid.2013.10.011).

Molecules are shown by their SMILES. ± gives the expanded uncertainty stated by the source.

The conditions of the data set: Crystal; visual observation.

Consider `O=C(O)C[C@H](O)C(=O)O` [l-hydroxysuccinic acid], for which the Normal melting temperature is 99.50 ± 1.6 °C.
